Results published in US20250255867A1 (Kadmon Corporation, LLC, priority 2022, published 2025).

## CC(C)NC(=O)COc1cccc(-c2nc(Nc3ccc4[nH]ncc4c3)c3ccccc3n2)c1 [Belumosudil, 2-{3-[4-(1H-indazol-5-ylamino)-2-quinazolinyl]phenoxy}-N-(propan-2-yl) acetamide]
Cohort 1
  Patients with relative dose intensity >95%: 77%
Cohort 1 200 mg QD
  Abdominal distension: # Events: 1
  Abdominal distension: Affected/At Risk: 1/17
  Abdominal distension: Affected/At Risk (%): (5.88%)
  Abdominal pain upper: # Events: 1
  Abdominal pain upper: Affected/At Risk: 1/17
  Abdominal pain upper: Affected/At Risk (%): (5.88%)
  Abdominal pain: # Events: 2
  Abdominal pain: Affected/At Risk: 2/17
  Abdominal pain: Affected/At Risk (%): (11.76%)
  Actinic keratosis: # Events: 0
  Actinic keratosis: Affected/At Risk: 0/17
  Actinic keratosis: Affected/At Risk (%): (0%)
  Acute kidney injury: # Events: 4
  Acute kidney injury: Affected/At Risk: 1/17
  Acute kidney injury: Affected/At Risk (%): (5.88%)
  Acute respiratory distress syndrome: # Events: 1
  Acute respiratory distress syndrome: Affected/At Risk: 1/17
  Acute respiratory distress syndrome: Affected/At Risk (%): (5.88%)
  Adrenal insufficiency: # Events: 2
  Adrenal insufficiency: Affected/At Risk: 1/17
  Adrenal insufficiency: Affected/At Risk (%): (5.88%)
  Alanine aminotransferase increased: # Events: 12
  Alanine aminotransferase increased: Affected/At Risk: 6/17
  Alanine aminotransferase increased: Affected/At Risk (%): (35.29%)
  Anaemia: # Events: 14
  Anaemia: Affected/At Risk: 5/17
  Anaemia: Affected/At Risk (%): (29.41%)
  Anal incontinence: # Events: 2
  Anal incontinence: Affected/At Risk: 1/17
  Anal incontinence: Affected/At Risk (%): (5.88%)
  Anxiety: # Events: 1
  Anxiety: Affected/At Risk: 1/17
  Anxiety: Affected/At Risk (%): (5.88%)
  Arthralgia: # Events: 1
  Arthralgia: Affected/At Risk: 1/17
  Arthralgia: Affected/At Risk (%): (5.88%)
  Aspartate aminotransferase increased: # Events: 8
  Aspartate aminotransferase increased: Affected/At Risk: 5/17
  Aspartate aminotransferase increased: Affected/At Risk (%): (29.41%)
  Asthenia: # Events: 0
  Asthenia: Affected/At Risk: 0/17
  Asthenia: Affected/At Risk (%): (0%)
  Atelectasis: # Events: 1
  Atelectasis: Affected/At Risk: 1/17
  Atelectasis: Affected/At Risk (%): (5.88%)
  Back pain: # Events: 0
  Back pain: Affected/At Risk: 0/17
  Back pain: Affected/At Risk (%): (0%)
  Balance disorder: # Events: 0
  Balance disorder: Affected/At Risk: 0/17
  Balance disorder: Affected/At Risk (%): (0%)
  Basal cell carcinoma: # Events: 0
  Basal cell carcinoma: Affected/At Risk: 0/17
  Basal cell carcinoma: Affected/At Risk (%): (0%)
  Benign prostatic hyperplasia: # Events: 1
  Benign prostatic hyperplasia: Affected/At Risk: 1/17
  Benign prostatic hyperplasia: Affected/At Risk (%): (5.88%)
  Blepharitis: # Events: 1
  Blepharitis: Affected/At Risk: 1/17
  Blepharitis: Affected/At Risk (%): (5.88%)
  Blister: # Events: 0
  Blister: Affected/At Risk: 0/17
  Blister: Affected/At Risk (%): (0%)
  Blood alkaline phosphatase increased: # Events: 6
  Blood alkaline phosphatase increased: Affected/At Risk: 4/17
  Blood alkaline phosphatase increased: Affected/At Risk (%): (23.53%)
  Blood chloride decreased: # Events: 0
  Blood chloride decreased: Affected/At Risk: 0/17
  Blood chloride decreased: Affected/At Risk (%): (0%)
  Blood cholesterol increased: # Events: 2
  Blood cholesterol increased: Affected/At Risk: 1/17
  Blood cholesterol increased: Affected/At Risk (%): (5.88%)
  Blood creatine increased: # Events: 0
  Blood creatine increased: Affected/At Risk: 0/17
  Blood creatine increased: Affected/At Risk (%): (0%)
  Blood creatine phosphokinase increased: # Events: 1
  Blood creatine phosphokinase increased: Affected/At Risk: 1/17
  Blood creatine phosphokinase increased: Affected/At Risk (%): (5.88%)
  Blood creatinine increased: # Events: 1
  Blood creatinine increased: Affected/At Risk: 1/17
  Blood creatinine increased: Affected/At Risk (%): (5.88%)
  Blood loss anaemia: # Events: 1
  Blood loss anaemia: Affected/At Risk: 1/17
  Blood loss anaemia: Affected/At Risk (%): (5.88%)
  Bronchial secretion retention: # Events: 0
  Bronchial secretion retention: Affected/At Risk: 0/17
  Bronchial secretion retention: Affected/At Risk (%): (0%)
  Bronchitis: # Events: 1
  Bronchitis: Affected/At Risk: 1/17
  Bronchitis: Affected/At Risk (%): (5.88%)
  Bronchoscopy: # Events: 1
  Bronchoscopy: Affected/At Risk: 1/17
  Bronchoscopy: Affected/At Risk (%): (5.88%)
  Catheter site haemorrhage: # Events: 1
  Catheter site haemorrhage: Affected/At Risk: 1/17
  Catheter site haemorrhage: Affected/At Risk (%): (5.88%)
  Chills: # Events: 1
  Chills: Affected/At Risk: 1/17
  Chills: Affected/At Risk (%): (5.88%)
  Chronic kidney disease: # Events: 1
  Chronic kidney disease: Affected/At Risk: 1/17
  Chronic kidney disease: Affected/At Risk (%): (5.88%)
  Conjunctival haemorrhage: # Events: 0
  Conjunctival haemorrhage: Affected/At Risk: 0/17
  Conjunctival haemorrhage: Affected/At Risk (%): (0%)
  Conjunctivitis: # Events: 0
  Conjunctivitis: Affected/At Risk: 0/17
  Conjunctivitis: Affected/At Risk (%): (0%)
  Constipation: # Events: 1
  Constipation: Affected/At Risk: 1/17
  Constipation: Affected/At Risk (%): (5.88%)
  Contrast media allergy: # Events: 0
  Contrast media allergy: Affected/At Risk: 0/17
  Contrast media allergy: Affected/At Risk (%): (0%)
  Contusion: # Events: 2
  Contusion: Affected/At Risk: 2/17
  Contusion: Affected/At Risk (%): (11.76%)
  Corneal abrasion: # Events: 1
  Corneal abrasion: Affected/At Risk: 1/17
  Corneal abrasion: Affected/At Risk (%): (5.88%)
  Corneal infection: # Events: 0
  Corneal infection: Affected/At Risk: 0/17
  Corneal infection: Affected/At Risk (%): (0%)
  Cough: # Events: 1
  Cough: Affected/At Risk: 1/17
  Cough: Affected/At Risk (%): (5.88%)
  Decreased appetite: # Events: 4
  Decreased appetite: Affected/At Risk: 2/17
  Decreased appetite: Affected/At Risk (%): (11.76%)
  Dehydration: # Events: 2
  Dehydration: Affected/At Risk: 2/17
  Dehydration: Affected/At Risk (%): (11.76%)
  Depression: # Events: 0
  Depression: Affected/At Risk: 0/17
  Depression: Affected/At Risk (%): (0%)
  Diarrhoea: # Events: 9
